From US12583854B2, “KRAS G12C inhibitors and methods of using the same” (Amgen Inc., priority 2018, dated 2026)

Biological target: GDP-bound KRAS protein (aa 1-169), containing both G12C and C118A amino acid substitutions (Homo sapiens, UniProt P01116, C118A/G12C)
Experiment: Coupled Nucleotide Exchange Assay
Type: biochemical
Details: 5 min compound pre-incubation; SOS-mediated nucleotide exchange, AlphaScreen
Procedure: Following compound pre-incubation, purified SOS protein (aa 564-1049) and GTP (Roche 10106399001) were added to the assay wells and incubated for an additional 30 min. To determine the extent of inhibition of SOS-mediated nucleotide exchange, purified GST-tagged cRAF (aa 1-149), nickel chelate AlphaLISA acceptor beads (PerkinElmer AL108R), and AlphaScreen glutathione donor beads (PerkinElmer 6765302) were added to the assay wells and incubated for 10 minutes. The assay plates were then read on a PerkinElmer EnVision Multilabel Reader, using AlphaScreen® technology, and data were analyzed using a 4-parameter logistic model to calculate IC50 values.

GDP-bound KRAS protein (aa 1-169), containing both G12C and C118A amino acid substitutions, sequence (P01116 1-169 isoform P01116-2 G12C/C118A): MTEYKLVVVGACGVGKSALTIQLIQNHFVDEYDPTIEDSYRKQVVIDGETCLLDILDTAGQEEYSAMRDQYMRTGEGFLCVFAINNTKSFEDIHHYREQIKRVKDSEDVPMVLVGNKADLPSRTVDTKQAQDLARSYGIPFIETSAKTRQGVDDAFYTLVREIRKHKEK

C=CC(=O)N1CCN(c2c(C#N)c(=O)n(-c3c(CN(C)C)ccnc3C(C)C)c3nc(-c4ccccc4F)c(Cl)cc23)CC1 [Example 2.1, 4-(4-acryloylpiperazin-1-yl)-6-chloro-1-(4-((dimethylamino)methyl)-2-isopropylpyridin-3-yl)-7-(2-fluorophenyl)-2-oxo-1,2-dihydro-1,8-naphthyridine-3-carbonitrile]
Coupled exchange IC50 (5 min; μM): 0.18 µM

C=CC(=O)N1CCN(c2c(C#N)c(=O)n(-c3c(C(C)C)ncnc3C(C)C)c3nc(Cl)c(Cl)cc23)CC1 [Example 9.1, 4-(4-acryloylpiperazin-1-yl)-6,7-dichloro-1-(4,6-diisopropylpyrimidin-5-yl)-2-oxo-1,2-dihydro-1,8-naphthyridine-3-carbonitrile]
Coupled exchange IC50 (5 min; μM): 25.1 µM

C=CC(=O)N1CCN(c2c(C#N)c(=O)n(-c3c(CN(C)C)ccnc3C(C)C)c3nc(-c4ccccc4F)c(Cl)cc23)CC1 [Example 2.2, 4-(4-acryloylpiperazin-1-yl)-6-chloro-1-(4-((dimethylamino)methyl)-2-isopropylpyridin-3-yl)-7-(2-fluorophenyl)-2-oxo-1,2-dihydro-1,8-naphthyridine-3-carbonitrile]
Coupled exchange IC50 (5 min; μM): 5.71 µM

C=CC(=O)N1CCN(c2c(C#N)c(=O)n(-c3c(C(C)C)ccnc3C(C)C)c3nc(Cl)c(F)cc23)CC1 [Example 9, 4-(4-Acryloylpiperazin-1-yl)-7-chloro-1-(2,4-diisopropylpyridin-3-yl)-6-fluoro-2-oxo-1,2-dihydro-1,8-naphthyridine-3-carbonitrile]
Coupled exchange IC50 (5 min; μM): 82.1 µM

C=CC(=O)N1C[C@H](C)N(c2c(C#N)c(=O)n(-c3c(C)ccnc3C(C)C)c3nc(-c4ccccc4F)c(Cl)cc23)C[C@H]1C (single isomer, unassigned) [Example 7.4]
Coupled exchange IC50 (5 min; μM): 17.6 µM

C=CC(=O)N1CCN(c2c(C#N)c(=O)n(-c3c(C(C)C)ccnc3N(C)C)c3nc(-c4ccccc4F)c(Cl)cc23)CC1 (single isomer, unassigned) [Example 8.7, 4-(4-acryloylpiperazin-1-yl)-6-chloro-1-(2-(dimethylamino)-4-isopropylpyridin-3-yl)-7-(2-fluorophenyl)-2-oxo-1,2-dihydro-1,8-naphthyridine-3-carbonitrile]
Coupled exchange IC50 (5 min; μM): 1.55 µM

C=CC(=O)N1CCN(c2c(C#N)c(=O)n(-c3c(CN(C)C)ccnc3C(C)C)c3nc(-c4ccccc4F)c(Cl)cc23)CC1 [Example 2, 4-(4-Acryloylpiperazin-1-yl)-6-chloro-1-(4-((dimethylamino)methyl)-2-isopropylpyridin-3-yl)-7-(2-fluorophenyl)-2-oxo-1,2-dihydro-1,8-naphthyridine-3-carbonitrile]
Coupled exchange IC50 (5 min; μM): 0.061 µM

C=CC(=O)N1CCN(c2c(C#N)c(=O)n(-c3c(C)ccnc3C(C)C)c3nc(-c4ccccc4F)c(Cl)cc23)C[C@@H]1C [Example 6.1, (S)-4-(4-acryloyl-3-methylpiperazin-1-yl)-6-chloro-7-(2-fluorophenyl)-1-(2-isopropyl-4-methylpyridin-3-yl)-2-oxo-1,2-dihydro-1,8-naphthyridine-3-carbonitrile]
Coupled exchange IC50 (5 min; μM): 1.57 µM

C=CC(=O)N1CCN(c2c(C#N)c(=O)n(-c3c(C(C)C)ccnc3C(C)C)c3nc(-c4ccccc4C)c(F)cc23)CC1 [Example 10.3, 4-(4-acryloylpiperazin-1-yl)-1-(2,4-diisopropylpyridin-3-yl)-6-fluoro-2-oxo-7-(o-tolyl)-1,2-dihydro-1,8-naphthyridine-3-carbonitrile]
Coupled exchange IC50 (5 min; μM): 0.83 µM

C=CC(=O)N1CCN(c2c(C#N)c(=O)n(-c3c(C)ccnc3C(C)C)c3nc(-c4ccccc4C)c(Cl)cc23)CC1 (single isomer, unassigned) [Example 11, 4-(4-Acryloylpiperazin-1-yl)-6-chloro-1-(2-isopropyl-4-methylpyridin-3-yl)-2-oxo-7-(o-tolyl)-1,2-dihydro-1,8-naphthyridine-3-carbonitrile]
Coupled exchange IC50 (5 min; μM): 0.71 µM

C=CC(=O)N1[C@H](C)CN(c2c(C#N)c(=O)n(-c3c(C)ccnc3C(C)C)c3nc(-c4ccccc4F)c(Cl)cc23)C[C@@H]1C (single isomer, unassigned) [Example 7.6]
Coupled exchange IC50 (5 min; μM): 0.32 µM

C=CC(=O)N1CCN(c2c(C#N)c(=O)n(-c3c(C(C)C)ccnc3C(C)C)c3nc(-c4ccccc4C)c(F)cc23)CC1 [Example 10, 4-(4-Acryloylpiperazin-1-yl)-1-(2,4-diisopropylpyridin-3-yl)-6-fluoro-2-oxo-7-(o-tolyl)-1,2-dihydro-1,8-naphthyridine-3-carbonitrile]
Coupled exchange IC50 (5 min; μM): 0.94 µM

C=CC(=O)N1CCN(c2c(C#N)c(=O)n(-c3c(C(C)C)ccnc3C(C)C)c3nc(-c4ccccc4C)c(F)cc23)CC1 [Example 10.2, 4-(4-acryloylpiperazin-1-yl)-1-(2,4-diisopropylpyridin-3-yl)-6-fluoro-2-oxo-7-(o-tolyl)-1,2-dihydro-1,8-naphthyridine-3-carbonitrile]
Coupled exchange IC50 (5 min; μM): 0.45 µM

C=CC(=O)N1CCN(c2c(C#N)c(=O)n(-c3c(C(C)C)ccnc3C(C)C)c3nc(-c4ccccc4F)c(F)cc23)CC1 [Example 10.1, 4-(4-acryloylpiperazin-1-yl)-1-(2,4-diisopropylpyridin-3-yl)-6-fluoro-7-(2-fluorophenyl)-2-oxo-1,2-dihydro-1,8-naphthyridine-3-carbonitrile]
Coupled exchange IC50 (5 min; μM): 0.65 µM

C=CC(=O)N1C[C@H](C)N(c2c(C#N)c(=O)n(-c3c(C)ccnc3C(C)C)c3nc(-c4ccccc4F)c(Cl)cc23)C[C@H]1C (single isomer, unassigned) [Example 7.5]
Coupled exchange IC50 (5 min; μM): 2.27 µM

C=CC(=O)N1CCN(c2c(C#N)c(=O)n(-c3c(N(C)C)ccnc3C(C)C)c3nc(-c4ccccc4F)c(Cl)cc23)CC1 (single isomer, unassigned) [Example 8.5, 4-(4-acryloylpiperazin-1-yl)-6-chloro-1-(4-(dimethylamino)-2-isopropylpyridin-3-yl)-7-(2-fluorophenyl)-2-oxo-1,2-dihydro-1,8-naphthyridine-3-carbonitrile]
Coupled exchange IC50 (5 min; μM): 3.26 µM

C=CC(=O)N1CCN(c2c(C#N)c(=O)n(-c3c(C(C)C)ncnc3C(C)C)c3nc(-c4ccccc4CN(C)C)c(Cl)cc23)CC1 [Example 1, 4-(4-Acryloylpiperazin-1-yl)-6-chloro-1-(4,6-diisopropylpyrimidin-5-yl)-7-(2-((dimethylamino)methyl)phenyl)-2-oxo-1,2-dihydro-1,8-naphthyridine-3-carbonitrile]
Coupled exchange IC50 (5 min; μM): 4.13 µM

C=CC(=O)N1CCN(c2c(C#N)c(=O)n(-c3c(C(C)C)ccnc3C(C)C)c3nc(-c4ccccc4F)c(F)cc23)CC1 [Example 10.5, 4-(4-acryloylpiperazin-1-yl)-1-(2,4-diisopropylpyridin-3-yl)-6-fluoro-7-(2-fluorophenyl)-2-oxo-1,2-dihydro-1,8-naphthyridine-3-carbonitrile]
Coupled exchange IC50 (5 min; μM): 0.36 µM

C=CC(=O)N1CCN(c2c(C#N)c(=O)n(-c3c(C)ccnc3C(C)C)c3nc(-c4ccccc4C(C)C)c(Cl)cc23)CC1 (single isomer, unassigned) [Example 11.2, 4-(4-acryloylpiperazin-1-yl)-6-chloro-1-(2-isopropyl-4-methylpyridin-3-yl)-7-(2-isopropylphenyl)-2-oxo-1,2-dihydro-1,8-naphthyridine-3-carbonitrile]
Coupled exchange IC50 (5 min; μM): 1.96 µM

C=CC(=O)N1CCN(c2c(C#N)c(=O)n(-c3c(C)ccnc3C(C)C)c3nc(Cl)c(Cl)cc23)CC1 [Example 9.2, 4-(4-acryloylpiperazin-1-yl)-6,7-dichloro-1-(2-isopropyl-4-methylpyridin-3-yl)-2-oxo-1,2-dihydro-1,8-naphthyridine-3-carbonitrile]
Coupled exchange IC50 (5 min; μM): 36 µM

C=CC(=O)N1CCN(c2c(C#N)c(=O)n(-c3c(C(C)C)ccnc3C(C)C)c3nc(-c4ccccc4F)c(F)cc23)CC1 [Example 10.4, 4-(4-acryloylpiperazin-1-yl)-1-(2,4-diisopropylpyridin-3-yl)-6-fluoro-7-(2-fluorophenyl)-2-oxo-1,2-dihydro-1,8-naphthyridine-3-carbonitrile]
Coupled exchange IC50 (5 min; μM): 0.44 µM

C=CC(=O)N1CCN(c2c(C#N)c(=O)n(-c3c(N(C)C)ccnc3C(C)C)c3nc(-c4ccccc4F)c(Cl)cc23)CC1 (single isomer, unassigned) [Example 8.3, 4-(4-acryloylpiperazin-1-yl)-6-chloro-1-(4-(dimethylamino)-2-isopropylpyridin-3-yl)-7-(2-fluorophenyl)-2-oxo-1,2-dihydro-1,8-naphthyridine-3-carbonitrile]
Coupled exchange IC50 (5 min; μM): 0.42 µM

C=CC(=O)N1CCN(c2c(C#N)c(=O)n(-c3c(C)ccnc3C(C)C)c3nc(-c4ccccc4F)c(Cl)cc23)C[C@H]1C (single isomer, unassigned) [Example 6.6]
Coupled exchange IC50 (5 min; μM): 0.92 µM

C=CC(=O)N1CCN(c2c(C#N)c(=O)n(-c3c(C)ccnc3C(C)C)c3nc(-c4ccccc4F)c(Cl)cc23)CC1 [Example 6.4, 4-(4-acryloylpiperazin-1-yl)-6-chloro-7-(2-fluorophenyl)-1-(2-isopropyl-4-methylpyridin-3-yl)-2-oxo-1,2-dihydro-1,8-naphthyridine-3-carbonitrile]
Coupled exchange IC50 (5 min; μM): 0.73 µM
